One assay relates to quiescent K562 cultures. As to conditions: concentrations readily achievable in the clinic.
For assay [1], the system named is K562 cells. Nature of the assay: Cytotoxicity of dasatinib in proliferating vs quiescent K562 cells (FIG. 3). Format: cell-based. As to conditions: Homo sapiens.
Assay [2] has as its system K562 cells. Nature of the assay: cells. As to conditions: Homo sapiens, colony formation.

As to `Cc1nc(Nc2ncc(C(=O)Nc3c(C)cccc3Cl)s2)cc(N2CCN(CCO)CC2)n1` [dasatinib, ′N-(2-Chloro-6-methylphenyl)-2-[[6-[4-(2-hydroxyethyl)-1-piperazinyl]-2-methyl-4-pyrimidinyl]amino]-5-thiazolecarboxamide], the “% cell kill” value in the assay on quiescent K562 cultures is recorded as 0%. Also, the IC50 in the assay with K562 cells [1] (K562, proliferating K562 cells (FIG. 3)) was 0.69 nM; in the assay with K562 cells [1] (K562, quiescent K562 cells (FIG. 3)), greater than 11.2 nM; with K562 cells [2] (K562, proliferating K562 cells) it was less than 1 nM; with K562 cells [2] (K562, quiescent K562 cultures (nutrient depletion)) it was greater than 12 nM.

Source of the values: patent publication US20060235006A1, “Combinations, methods and compositions for treating cancer” (priority 2005, published 2006).
